# From US7211246B2, “Compositions comprising oestrone-3-0-sulphamate and trail (TNF-related apoptosis inducing ligand)” (Sterix Limited, priority 2001, dated 2007)
# Experiments:
# caspase 3 = assay: Western blot of caspase 3 activation in Cal51 cells; assay type: cell-based
# Protocol: (§1) FIG. 3. Effect of 2-MeOE2bisMATE on caspase 8 and caspase 3 activation and PARP cleavage in Cal51 cells. Western blots showing caspase 8 and caspase 3 unprocessed and active fragments and PARP uncleaved and cleaved products following treatment of Cal51 cells with solvent, 0.05, 0.5 or 5 μM 2-MeOE2bisMATE for 48 hours.
# (§2) FIG. 5. Effect of 2-MeOE2bisMATE on the timing of caspase 3 and caspase 8 activation and PARP cleavage in Cal51 cells. Western blots showing caspase 3, caspase 8 and PARP unprocessed and cleaved products at 0, 8, 16, 24 and 48 hrs following treatment of Cal51 cells with 5 μM 2-MeOE2bisMATE for 48 hrs or untreated for 48 hrs (48NT).
# FIG. 7. Effect of combined treatment of 2-EtEMATE or 2-MeOEMATE and TRAIL on caspase 3 activation in Cal51 cells. Western blots showing caspase 3 activation following treatment of Cal51 cells for 48 hours with solvent, 250 ng/ml TRAIL and 5 μM 2-EtEMATE or 2-MeOEMATE in the presence or absence of 250 ng/ml TRAIL. PCNA levels represent corresponding loading controls. 1, control; 2, THF solvent; 3, TRAIL; 4, 2-EtEMATE; 5,2-EtEMATE+TRAIL; 6, control; 7, THF solvent; 8, TRAIL; 9, 2-MeOEMATE; 10, 2-MeOEMATE+TRAIL
# To determine whether caspases might play a role in cell death induced by 2-MeOE2bisMATE and other sulfamoylated oestrogen derivatives, we examined the expression of caspase 3, caspase 8 and PARP by immunoblotting (FIG. 3). […] Therefore, cell death induced by the 2-MeOE2bisMATE in Cal51 cells is associated with caspase activation.
# There are two major pathways of apoptosis; cell surface death receptors activate caspases directly via activation of caspase 8 whereas other apoptotic stimuli operate via triggering the release of cytochrome c from mitochondria which subsequently activates caspases. Both pathways ultimately result in activation of caspase 3 and PARP cleavage. Since activation of caspase 8 is an indicator for the direct involvement of death receptors, it is important to determine whether activation of caspase 8 by 2-MeOE2bisMATE precedes or follows caspase 3 activation. We therefore performed time course experiments in Cal51 cells treated with 2-MeOE2bisMATE to order the activation events. Caspase 3 activation was first detected at 16 hours and as expected was followed by PARP cleavage at 24 hours (FIG. 5). Caspase 8 activation was a relatively late event, first detected at 48 hours. Therefore activation of caspase 3 induced by 2-MeOE2bisMATE precedes activation of caspase 8.
# To further explore the mechanism for co-operation between sulfamoylated oestrones and TRAIL, we analysed activation of caspase 3 (FIG. 7). […] Therefore, sulfamoylated oestrones and TRAIL cooperate to activate caspase 3.
# caspase 8 = assay: Western blot of caspase 8 activation in Cal51 cells; assay type: cell-based
# Protocol: as §1, §2
# (§3) To determine whether caspases might play a role in cell death induced by 2-MeOE2bisMATE and other sulfamoylated oestrogen derivatives, we examined the expression of caspase 3, caspase 8 and PARP by immunoblotting (FIG. 3). […]
# (§4) There are two major pathways of apoptosis; cell surface death receptors activate caspases directly via activation of caspase 8 whereas other apoptotic stimuli operate via triggering the release of cytochrome c from mitochondria which subsequently activates caspases. […] Caspase 3 activation was first detected at 16 hours and as expected was followed by PARP cleavage at 24 hours (FIG. 5). Caspase 8 activation was a relatively late event, first detected at 48 hours. […]
# PARP = assay: Western blot of PARP cleavage in Cal51 cells; assay type: cell-based
# Protocol: as §1, §2, §3, §4
# CAL51 cells = assay: TUNEL assay of apoptosis in Cal51 cells with or without caspase inhibitor ZVAD-fmk; assay type: cell-based; details: 5 μM 2-MeOE2bisMATE with 50 μM zVAD-fmk, 3 days
# Protocol: FIG. 4. Effect of the caspase inhibitor ZVAD-fmk on 2-MeOE2bisMATE induced apoptosis in Cal51 cells. TUNEL assay showing % apoptosis of cells untreated or following treatment with 50 μM ZVAD-fmk, 5 μM 2-MeOE2bisMATE or 5 μM 2-MeOE2bisMATE and 50 μM zVAD-fmk for 3 days. Histograms are overlays for control cells stained in the absence of TdT enzyme (bold) or cells stained with TUNEL reaction mix (open).
# To determine whether the activation of caspases was important for cell killing, we tested whether a broad range chemical caspase inhibitor interfered with apoptosis. Cells were treated with 2-MeOE2bisMATE in the presence and absence of the caspase inhibitor ZVAD-fmk and cell death was analysed using the TUNEL assay which measures the DNA cleavage associated with apoptosis. The induction of TUNEL positive cells by 2-MeOE2bisMATE was reduced by 60% in the presence of zVAD-fmk (FIG. 4). Therefore 2-MeOE2bisMATE requires activation of caspases for optimal induction of apoptosis.
# DR5 protein = assay: Western blot of DR5 protein levels in Cal51 cells; assay type: cell-based; details: 48 hours, 0.05, 0.5 and 5 μM
# Protocol: FIG. 6. […] Western blot showing DR5 protein levels following treatment of Cal51 cells for 48 hours with 0, 0.05, 0.5 and 5 μM of 2-MeOEMATE or 2-EtEMATE. PCNA levels represent corresponding loading controls.
# Protein lysates were prepared from CAL51 cells treated with various compounds and analysed for expression of DR5 by immunoblotting (FIG. 6).
# [1] = in vivo; cited from earlier work
# [2] = Cal51 cells, 5 μM, time course 0-48 hrs
# [3] = Cal51 cells, 0.05, 0.5 or 5 μM, 48 hours
structure (smiles),measurement,setting,value
"COc1cc2c(cc1OS(N)(=O)=O)CCC1C2CCC2(C)C(OS(N)(=O)=O)CCC12 (stereo not shown) [2-MeOE2bisMATE, 2-methoxyoestrone-3-O,17-bissulphamate]",time at which caspase 3 activation was first detected,caspase 3; [2],16 h
same,activation of caspase 3,caspase 3; [3],dose dependent activation
same,"activation of caspase 3, synergistic effect with TRAIL",caspase 3; in combination with TRAIL,increased activation of caspase 3
same,time at which caspase 8 activation was first detected,caspase 8; [2],48 h
same,activation of caspase 8,caspase 8; [3],dose dependent activation
same,time of PARP cleavage,PARP; [2],24 h
same,PARP cleavage,PARP; [3],Cleavage of PARP
same,reduction of induction of TUNEL positive cells in the presence of zVAD-fmk,CAL51 cells,60%
same,DR5 protein levels by western blot,DR5 protein,no significant change
"C[C@]12CC[C@@H]3c4ccc(OS(=O)(=O)O)cc4CC[C@H]3[C@@H]1CCC2=O [E1S, oestrone sulphate]",half-life in blood,[1],10 to 12 h
